Test [1] deals with genotype A, "Long" strain RSV. Description: RSV-A assay (CPE protection in Hep-2 cells, ATPlite readout). Type of test: cell-based, Human respiratory syncytial virus (HRSV). Particulars: human respiratory syncytial virus, MOI 0.1, CPE protection. An outline of the steps:
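Hep-2 cells (8,000/well) were treated with 2-fold serial compound dilutions in duplicate and infected with RSV at MOI 0.1. After 5 days, protection from cytopathic effect was measured as cell viability by ATPlite luminescence, and EC50 values were derived.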

Test [2] relates to HMPV clinical isolate TN/1501/A1. Briefly: HMPV antiviral assay Method-B (clinical isolate TN/1501/A1 in LLC-MK2 cells, ATP-Lite readout). The format is cell-based, Human metapneumovirus (HMPV). Particulars: human metapneumovirus, LLC-MK2, 144 h, hMPV WT1501 (clinical isolate TN/1501/A1), 6 days. Put shortly:
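EC50 derived by four-parameter logistic fit of percent cell health, measured by ATP-Lite luminescence and normalised to virus-only and uninfected-cell controls. Compounds run in duplicate from 10 μM top, 3-fold, 10 points. Infection: LLC-MK2 cells, MOI 0.014, 2 μg/mL final TPCK-trypsin, serum-free, 6 days at 37° C.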

Setting [3] is: RSV-A Long strain, read-out: Human RSV-A (“Long”) EC50.
Setting [4] is: genotype A “Long” strain RSV, read-out: Human RSV-A (“Long”).

Each structure is given as a SMILES string. Read-outs that look alike come from different tables or passages of the source.

Turning to `COc1cc(C(=O)NC[C@](O)(c2cc3c(c(-c4c(F)cc(Cl)cc4F)n2)OC[C@]3(C)C(N)=O)C(F)(F)F)cc2cn(C3CC3)nc12` [Example 961], the figures for the EC50 in test [1] (setting [3]) and in test [2] were less than 200 nM and less than 500 nM, respectively.
Take `C[C@]1(C(N)=O)COc2c1cc([C@@](O)(CNC(=O)c1cc(F)c3nc(N)sc3c1)C(F)(F)F)nc2-c1ccc2c(c1)OC(F)(F)O2` [Example 698]: the figures for the EC50 in test [1] (setting [4]) and in test [2] were less than 200 nM and more than 500 nM, respectively.
For the compound `COc1cc(C(=O)NC[C@](O)(c2cc3c(c(-c4ccc(F)c(Cl)c4F)n2)OC[C@]3(C)C(N)=O)C(F)(F)F)cc2cn(C3CC3)nc12` [Example 930], the EC50 in test [1] (setting [3]) was less than 200 nM; in test [2] it was less than 500 nM.
Consider `COc1cc(C(=O)NC[C@](O)(c2cc3c(c(-c4ccc(F)cc4Cl)n2)OC[C@]3(C)C(N)=O)C2CC2)cc2cn(C3(F)CC3)nc12` [Example 652], for which the EC50 in test [1] (setting [4]) is less than 200 nM; in test [2], less than 500 nM.
As for `C[C@]1(C(N)=O)COc2c1cc([C@@](O)(CNC(=O)c1cc(OCC3CC3)c3nn(C4(F)CC4)cc3c1)C(F)(F)F)nc2-c1cc(Cl)c(F)cc1F` [Example 616], the EC50 in test [1] (setting [4]) was less than 200 nM; in test [2], less than 500 nM.
`COc1cc(C(=O)NC[C@](O)(c2cc3c(c(-c4cc(C(F)F)cs4)n2)OC[C@]3(C)C(N)=O)C(F)(F)F)cc2cn(C3CC3)nc12` [Example 947]: the EC50 in test [1] (setting [3]) was less than 200 nM; in test [2] it was more than 500 nM.
Consider `COc1cc(C(=O)NC[C@](O)(c2cc3c(c(-c4cc(F)c(Cl)cc4F)n2)OC[C@]3(C)C(N)=O)C2CC2)cc2cn(C3CC3)nc12` [Example 1177], for which the EC50 was less than 200 nM in test [1] (setting [3]) and less than 500 nM in test [2].
For `COc1cc(C(=O)NC[C@](O)(c2cc3c(c(-c4cc(Cl)c(F)c(Cl)c4)n2)OC[C@]3(C)C(N)=O)C(F)(F)F)cc2cc(Br)cnc12` [Example 672], the EC50 in test [1] (setting [4]) is less than 200 nM; in test [2], more than 500 nM.
As to `COc1cc(C(=O)NC[C@](O)(c2cc3c(c(-c4csc5c(Cl)cccc45)n2)OC[C@]3(C)C(N)=O)C(F)(F)F)cc2cn(C3CC3)nc12` [Example 937], the EC50 in test [1] (setting [3]) was more than 200 nM; in test [2], more than 500 nM.
`Cc1cnc2c(OC(F)F)cc(C(=O)NC[C@](O)(c3cc4c(c(-c5ccc(F)c(Cl)c5)n3)OC[C@@]4(C(N)=O)C(F)F)C3CC3)cc2c1` [Example 1029]: the values for the EC50 in test [1] (setting [3]) and in test [2] were less than 200 nM and less than 500 nM, respectively.
As for `COc1cc(C(=O)NC[C@](O)(c2cc3c(c(-c4ccc(F)cc4)n2)OC[C@]3(C)C(N)=O)C2(F)CC2)cc2cn(C(F)F)nc12` [Example 711], the values for the EC50 in test [1] (setting [4]) and in test [2] were less than 200 nM and less than 500 nM, respectively.
For `COc1cc(C(=O)NC[C@](O)(c2cc3c(c(-c4ccc(F)cc4)n2)OC[C@]3(C)C(N)=O)C2CC2)cc2cc(C)nnc12` [Example 762], the EC50 is less than 200 nM in test [1] (setting [4]) and less than 500 nM in test [2].
On the same counts, the results for `Cc1cnc2c(OC(F)(F)F)cc(C(=O)NC[C@](O)(c3cc4c(c(-c5ccc(F)c(F)c5F)n3)OC[C@]4(C)C(N)=O)C(F)(F)F)cc2c1` [Example 515] are less than 200 nM and less than 500 nM.
Take `C[C@]1(C(N)=O)COc2c1cc([C@@](O)(CNC(=O)c1cc(F)c3nn(C(F)F)cc3c1)C1CC1)nc2-c1ccc(F)c(Cl)c1F` [Example 571]: the EC50 in test [1] (setting [4]) was less than 200 nM; in test [2], less than 500 nM.
With `COc1cc(C(=O)NC[C@](O)(c2cc3c(c(-c4ccc(F)c(C(F)(F)F)c4)n2)OC[C@]3(C)C(N)=O)C2CC2)cc2cc(Cl)c(C)nc12` [Example 1103], the EC50 in test [1] (setting [3]) is less than 200 nM; in test [2], less than 500 nM.
For `Cc1nc2c(Cl)cc(C(=O)NC[C@](O)(c3cc4c(c(-c5ccc(F)c(Cl)c5)n3)OC[C@]4(C)C(N)=O)C(F)(F)F)cc2cc1Cl` [Example 884], the results for the EC50 in test [1] (setting [3]) and in test [2] were less than 200 nM and more than 500 nM, respectively.
On to `COc1cc(C(=O)NC[C@@](O)(c2cc3c(c(C4=CCC(F)(F)CC4)n2)OC[C@]3(C)C(N)=O)C(F)(F)F)cc2cn(C3CC3)nc12` [Example 1229], for which the EC50 in test [1] (setting [3]) was more than 200 nM; in test [2], more than 500 nM.
As to `C[C@]1(C(N)=O)COc2c1cc([C@@](O)(CNC(=O)c1cc(Cl)c3nn(C4(F)CC4)cc3c1)C1CC1)nc2-c1ccc2c(c1)OC(F)(F)O2` [Example 849], the EC50 in test [1] (setting [3]) was less than 200 nM; in test [2], less than 500 nM.
Turning to `COc1cc(C(=O)NC[C@](O)(c2cc3c(c(-c4ccc(F)cc4)n2)OC[C@]3(C)C(N)=O)C(F)(F)F)cc2cn(C3(F)CC3)nc12` [Example 820], the EC50 in test [1] (setting [4]) is less than 200 nM; in test [2], less than 500 nM.
In the case of `COc1cc(C(=O)NC[C@](O)(c2cc3c(c(-c4ccc5c(c4)OC(F)(F)O5)n2)OC[C@]3(C)C(N)=O)C2(F)CC2)cc2cc(Cl)c(C)nc12` [Example 717], the EC50 in test [1] (setting [4]) was less than 200 nM; in test [2], less than 500 nM.
For the compound `C[C@]1(C(N)=O)COc2c1cc([C@@](O)(CNC(=O)c1ccc(OC3CC3)c3nccn13)C(F)(F)F)nc2-c1ccc(F)cc1` [Example 702], the EC50 was less than 200 nM in test [1] (setting [4]) and more than 500 nM in test [2].
In the case of `C[C@]1(C(N)=O)COc2c1cc([C@@](O)(CNC(=O)c1cc(OCC(F)F)c3nn(C4(F)CC4)cc3c1)C(F)(F)F)nc2-c1ccc(F)cc1` [Example 889], the EC50 was less than 200 nM in test [1] (setting [3]) and more than 500 nM in test [2].
As for `COc1cc(C(=O)NC[C@](O)(c2cc3c(c(-c4ccc(F)c(Cl)c4F)n2)OC[C@]3(C)C(N)=O)C2(F)CC2)cc2cn(C(F)F)nc12` [Example 754], the EC50 in test [1] (setting [4]) was less than 200 nM; in test [2], less than 500 nM.
For `C[C@]1(C(N)=O)COc2c1cc([C@@](O)(CNC(=O)c1cc(Cl)c3nn(C4CC4)cc3c1)C1CC1)nc2-c1cc(Br)c(F)cc1F` [Example 1096], the EC50 in test [1] (setting [3]) was less than 200 nM; in test [2], less than 500 nM.
On the same counts, the results for `COc1cc(C(=O)NC[C@](O)(c2cc3c(c(-c4ccc(F)c(F)c4F)n2)OC[C@@]3(C(N)=O)C(F)F)C(F)(F)F)cc2cn(C3CC3)nc12` [Example 1039] are less than 200 nM and less than 500 nM.
In the case of `COc1cc(C(=O)NC[C@](O)(c2cc3c(c(-c4ccc(F)c(Cl)c4)n2)OC[C@@]3(CF)C(N)=O)C(F)(F)F)cc2cn(C3CC3)nc12` [Example 1051], the EC50 in test [1] (setting [3]) is less than 200 nM; in test [2], more than 500 nM.
Consider `COc1cc(C(=O)NC[C@](O)(c2cc3c(c(-c4ccc(OC5CC5)cc4)n2)OC[C@]3(C)C(N)=O)C(F)(F)F)cc2cn(C3CC3)nc12` [Example 976], for which the EC50 in test [1] (setting [3]) is less than 200 nM; in test [2] it was more than 500 nM.
Take `COc1cc(C(=O)NC[C@](O)(c2cc3c(c(-c4ccc(F)c(F)c4Cl)n2)OC[C@]3(C)C(N)=O)C2CC2)cc2cn(C3CC3)nc12` [Example 533]: the EC50 in test [1] (setting [4]) was less than 200 nM; in test [2] it was less than 500 nM.
`C[C@]1(C(N)=O)COc2c1cc([C@@](O)(CNC(=O)c1cc(Cl)c3nn(C4CC4)cc3c1)C1CC1)nc2-c1cccc(Br)c1F` [Example 1099]: the EC50 was less than 200 nM in test [1] (setting [3]) and less than 500 nM in test [2].
`COc1cc(C(=O)NC[C@](O)(c2cc3c(c(-c4csc5c(F)cccc45)n2)OC[C@]3(C)C(N)=O)C(F)(F)F)cc2cc(Br)cnc12` [Example 602]: the EC50 was less than 200 nM in test [1] (setting [4]) and less than 500 nM in test [2].
On the same counts, the results for `COc1cc(C(=O)NC[C@](O)(c2cc3c(c(-c4ccc5c(c4)OC(F)(F)O5)n2)OC[C@]3(C)C(N)=O)C(F)(F)F)cc2cc(C)nnc12` [Example 764] are less than 200 nM and less than 500 nM.
As for `COc1cc(C(=O)NC[C@](O)(c2cc3c(c(-c4cccc(Br)c4F)n2)OC[C@]3(C)C(N)=O)C2CC2)cc2cn(C3(F)CC3)nc12` [Example 1087], the EC50 is less than 200 nM in test [1] (setting [3]) and less than 500 nM in test [2].
Regarding `COc1cc(C(=O)NC[C@](O)(c2cc3c(c(-c4ccc(F)c(Cl)c4)n2)OC[C@]3(C(N)=O)C(F)F)C2CC2)cc2cn(C3CC3)nc12` [Example 1024], the EC50 was more than 200 nM in test [1] (setting [3]) and more than 500 nM in test [2].
In the case of `COc1cc(C(=O)NC[C@](O)(c2cc3c(c(-c4ccc(F)cc4)n2)OC[C@]3(C)C(N)=O)C(F)(F)F)cc2c(F)n(C3CC3)nc12` [Example 649], the EC50 is less than 200 nM in test [1] (setting [4]) and more than 500 nM in test [2].
Take `Cc1nc2c(OC3CC3)cc(C(=O)NC[C@](O)(c3cc4c(c(-c5ccc(F)cc5Cl)n3)OC[C@]4(C)C(N)=O)C(F)(F)F)cc2cc1Cl` [Example 518]: the results for the EC50 in test [1] (setting [4]) and in test [2] were less than 200 nM and less than 500 nM, respectively.
Turning to `C[C@]1(C(N)=O)COc2c1cc([C@@](O)(CNC(=O)c1cc(F)c3nn(C4(F)CC4)cc3c1)C(F)(F)F)nc2-c1ccc(F)cc1` [Example 833], the EC50 was less than 200 nM in test [1] (setting [3]) and more than 500 nM in test [2].
On to `COc1cc(C(=O)NC[C@](O)(c2cc3c(c(-c4ccc(F)cc4Cl)n2)OC[C@]3(C)C(N)=O)C2CC2)cc2cn(C3CC3)nc12` [Example 872], for which the EC50 in test [1] (setting [3]) is less than 200 nM; in test [2] it was less than 500 nM.
Consider `COc1cc(C(=O)NC[C@](O)(c2cc3c(c(-c4ccc5cc[nH]c5c4)n2)OC[C@]3(C)C(N)=O)C(F)(F)F)cc2cn(C3CC3)nc12` [Example 970], for which the EC50 in test [1] (setting [3]) is more than 200 nM; in test [2], more than 500 nM.
For the compound `COc1cc(C(=O)NC[C@](O)(c2cc3c(c(-c4ccc(F)cc4)n2)OC[C@]3(C)C(N)=O)C(F)(F)F)cc2cc(C#N)cnc12` [Example 1134], the EC50 was less than 200 nM in test [1] (setting [3]) and more than 500 nM in test [2].
Turning to `COc1cc(C(=O)NC[C@](O)(c2cc3c(c(-c4ccccc4F)n2)OC[C@]3(C)C(N)=O)C(F)(F)F)cc2cn(C3CC3)nc12` [Example 911], the EC50 was less than 200 nM in test [1] (setting [3]) and less than 500 nM in test [2].

These data come from patent US12612412B2, “Antiviral heterocyclic compounds” (Enanta Pharmaceuticals, Inc., priority 2021, dated 2026).
